Data on 26 compounds can be found in patent publication US9561228B2 (Celgene Avilomics Research, Inc., priority 2013, dated 2017).

The subject of experiment [1] is ERK1/2 phosphorylation of p90RSK in HT29 cells. The experiment is described as follows: pRSK MSD Assay in HT29 cells. The format is cell-based. As to conditions: Homo sapiens, HT-29, read-out: ERK1/ERK2 PRSK MSD HT29 EC50. In a few lines: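 Serum-starved HT29 cells (0.1% FBS overnight) treated with test compound for 120 min at 37° C, then lysed with protease and phosphatase inhibitors. Phospho-p90RSK quantified by MSD sandwich immunoassay: RSK capture antibody, phospho-RSK detection antibody plus Sulfo-tagged antibody, electrochemiluminescence read.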

Experiment [2] concerns ERK1/2 phosphorylation of p90RSK in A375 cells. The experiment is described as follows: Detection of total and phosphor-RSK by MSD ELISA (A375). The format is cell-based. The following applies: Homo sapiens, A-375, read-out: ERK1/ERK2 PRSK A375 EC50. An outline of the steps:
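A375 cells serum-starved overnight in DMEM/0.1% FBS, then treated 2 h at 37° C with compound (1000× DMSO dilutions into medium). Lysates captured on RSK antibody-coated MSD plates; phospho-RSK (Ser380) and total RSK detected with SulfoTag secondary antibodies by electrochemiluminescence.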
For orientation: ELISA stands for enzyme-linked immunosorbent assay.

SMILES strings stand for the structures.

Regarding `C=CC(=O)Nc1cc(OC)ccc1Nc1nc(N[C@H]2CCCN(C(=O)CO)C2)ncc1C(F)(F)F` [Compound I-64, (S)—N-(2-((2-((1-(2-Hydroxyacetyl)piperidin-3-yl)amino)-5-(trifluoromethyl)pyrimidin-4-yl)amino)-5-methoxyphenyl)acrylamide], the figures for the EC50 in experiment [1] and in experiment [2] were less than 0.1 µM and 0.101 to 0.5 µM, respectively.
Consider `C=CC(=O)Nc1ccccc1Nc1nc(Nc2cc(C(N)=O)ccc2C)ncc1C(F)(F)F` [Compound I-68, 3-(4-(2-Acrylamidophenylamino)-5-(trifluoromethyl)pyrimidin-2-ylamino)-4-methylbenzamide], for which the EC50 was less than 0.1 µM in experiment [1] and 0.101 to 0.5 µM in experiment [2].
Take `C=CC(=O)Nc1cc(OC)ccc1Nc1nc(Nc2cc(OC)nc(N3CCN(CC)CC3)c2)ncc1C(F)(F)F` [Compound I-88, N-(2-((2-((2-(4-Ethylpiperazin-1-yl)-6-methoxypyridin-4-yl)amino)-5-(trifluoromethyl)pyrimidin-4-yl)amino)-5-methoxyphenyl)acrylamide]: the EC50 in experiment [1] and in experiment [2] was 0.101 to 0.5 µM throughout.
For `C=CC(=O)Nc1cc(C)ccc1Nc1nc(Nc2cc(OC)nc(N3CCN(CC)CC3)c2)ncc1C(F)(F)F` [Compound I-89, N-(2-((2-((2-(4-Ethylpiperazin-1-yl)-6-methoxypyridin-4-yl)amino)-5-(trifluoromethyl)pyrimidin-4-yl)amino)-5-methylphenyl)acrylamide], the EC50 in experiment [1] and in experiment [2] was 0.101 to 0.5 µM each time.
Turning to `C=CC(=O)Nc1cc(C)ccc1Nc1nc(Nc2cc(OC)ncc2C)ncc1C(F)(F)F` [Compound I-90, N-(2-((2-((2-Methoxy-5-methylpyridin-4-yl)amino)-5-(trifluoromethyl)pyrimidin-4-yl)amino)-5-methylphenyl)acrylamide], the EC50 in experiment [1] and in experiment [2] was less than 0.1 µM in each case.
For `C=CC(=O)Nc1cc(OC)ccc1Nc1nc(Nc2cc(OC)nc(N3CCN(C(C)=O)CC3)c2)ncc1C(F)(F)F` [Compound I-91, N-(2-((2-((2-(4-Acetylpiperazin-1-yl)-6-methoxypyridin-4-yl)amino)-5-(trifluoromethyl)pyrimidin-4-yl)amino)-5-methoxyphenyl)acrylamide], the values for the EC50 in experiment [1] and in experiment [2] were 0.101 to 0.5 µM and less than 0.1 µM, respectively.
On to `C=CC(=O)Nc1cc(C)ccc1Nc1nc(Nc2cc(OC)nc(N3CCOCC3)c2)ncc1C(F)(F)F` [Compound I-94, N-(2-((2-((2-Methoxy-6-morpholinopyridin-4-yl)amino)-5-(trifluoromethyl)pyrimidin-4-yl)amino)-5-methylphenyl)acrylamide], for which the EC50 in experiment [1] was less than 0.1 µM; in experiment [2] it was 0.101 to 0.5 µM.
Taken in the same sequence, the figures for `C=CC(=O)Nc1ccccc1Nc1nc(Nc2cc(OC)nc(OC)c2)ncc1C(F)(F)F` [Compound I-95, N-(2-((2-((2,6-Dimethoxypyridin-4-yl)amino)-5-(trifluoromethyl)pyrimidin-4-yl)amino)phenyl)acrylamide] were less than 0.1 µM and less than 0.1 µM.
Taken in the same sequence, the figures for `C=CC(=O)Nc1cc(C)ccc1Nc1nc(N[C@H]2CCCN(C(=O)CO)C2)ncc1Cl` [Compound I-140, (S)—N-(2-((5-chloro-2-((1-(2-hydroxyacetyl)piperidin-3-yl)amino)pyrimidin-4-yl)amino)-5-methylphenyl)acrylamide] were less than 0.1 µM and less than 0.1 µM.
With `C=CC(=O)Nc1cc(OC)ccc1Nc1nc(Nc2cc(OC)ncc2C)ncc1Cl` [Compound I-242, N-(2-((5-chloro-2-((2-methoxy-5-methylpyridin-4-yl)amino)pyrimidin-4-yl)amino)-5-methoxyphenyl)acrylamide], the EC50 in experiment [1] and in experiment [2] was less than 0.1 µM throughout.
For the compound `C=CC(=O)Nc1ccccc1Nc1nc(Nc2cc(OC)nc(N3CCCC3)c2)ncc1C(F)(F)F` [Compound I-281, N-(2-((2-((2-Methoxy-6-(pyrrolidin-1-yl)pyridin-4-yl)amino)-5-(trifluoromethyl)pyrimidin-4-yl)amino)phenyl)acrylamide], the EC50 in experiment [1] and in experiment [2] was less than 0.1 µM each time.
On to `C=CC(=O)Nc1ccccc1Nc1nc(Nc2cc(OC)nc(N3CCCCC3)c2)ncc1C(F)(F)F` [Compound I-282, N-(2-((2-((2-Methoxy-6-(piperidin-1-yl)pyridin-4-yl)amino)-5-(trifluoromethyl)pyrimidin-4-yl)amino)phenyl)acrylamide], for which the figures for the EC50 in experiment [1] and in experiment [2] were 0.101 to 0.5 µM and less than 0.1 µM, respectively.
With `C=CC(=O)Nc1ccccc1Nc1nc(Nc2cc(OC)nc(OCCOC)c2)ncc1C(F)(F)F` [Compound I-283, N-(2-((2-((2-Methoxy-6-(2-methoxyethoxyl)pyridin-4-yl)amino)-5-(trifluoromethyl)pyrimidin-4-yl)amino)phenyl)acrylamide], the EC50 in experiment [1] and in experiment [2] was less than 0.1 µM each time.
As to `C=CC(=O)Nc1cc(OC)ccc1Nc1nc(Nc2cc(OC)ncc2C)ncc1C(F)(F)F` [Compound I-284, N-(5-Methoxy-2-((2-((2-methoxy-5-methylpyridin-4-yl)amino)-5-(trifluoromethyl)pyrimidin-4-yl)amino)phenyl)acrylamide], the EC50 in experiment [1] and in experiment [2] was less than 0.1 µM in each case.
In the case of `C=CC(=O)Nc1ccccc1Nc1nc(Nc2cc(F)ccc2C)ncc1C(F)(F)F` [Compound I-285, N-(2-((2-((5-Fluoro-2-methylphenyl)amino)-5-(trifluoromethyl)pyrimidin-4-yl)amino)phenyl)acrylamide], the EC50 in experiment [1] is 0.101 to 0.5 µM; in experiment [2], more than 1 µM.
In the same order, the values of `C=CC(=O)Nc1ccccc1Nc1nc(Nc2cc(NCCOC)nc(OC)c2)ncc1C(F)(F)F` [Compound I-286, N-(2-((2-((2-Methoxy-6-((2-methoxyethyl)amino)pyridin-4-yl)amino)-5-(trifluoromethyl)pyrimidin-4-yl)amino)phenyl)acrylamide] are less than 0.1 µM and less than 0.1 µM.
In the case of `C=CC(=O)Nc1ccccc1Nc1nc(Nc2ccnc(F)c2)ncc1C(F)(F)F` [Compound I-287, N-(2-((2-((2-Fluoropyridin-4-yl)amino)-5-(trifluoromethyl)pyrimidin-4-yl)amino)phenyl)acrylamide], the EC50 in experiment [1] and in experiment [2] was less than 0.1 µM each time.
Turning to `C=CC(=O)Nc1cc(C)ccc1Nc1nc(Nc2ccnc(F)c2)ncc1C(F)(F)F` [Compound I-288, N-(2-((2-((2-Fluoropyridin-4-yl)amino)-5-(trifluoromethyl)pyrimidin-4-yl)amino)-5-methylphenyl)acrylamide], the EC50 in experiment [1] and in experiment [2] was 0.101 to 0.5 µM each time.
As to `C=CC(=O)Nc1ccccc1Nc1nc(Nc2cc(OC)nc(N3CCS(=O)(=O)CC3)c2)ncc1C(F)(F)F` [Compound I-291, N-(2-((2-((2-(1,1-Dioxidothiomorpholino)-6-methoxypyridin-4-yl)amino)-5-(trifluoromethyl)pyrimidin-4-yl)amino)phenyl)acrylamide], the EC50 in experiment [1] and in experiment [2] was less than 0.1 µM in each case.
For `C=CC(=O)Nc1ccccc1Nc1nc(Nc2ccnnc2)ncc1C(F)(F)F` [Compound I-293, N-(2-((2-(Pyridazin-4-ylamino)-5-(trifluoromethyl)pyrimidin-4-yl)amino)phenyl)acrylamide], the values for the EC50 in experiment [1] and in experiment [2] were 0.101 to 0.5 µM and 0.501 to 0.999 µM, respectively.
Regarding `C=CC(=O)Nc1cc(C)ccc1Nc1nc(Nc2cc(C)nc(OC)c2)ncc1C(F)(F)F` [Compound I-295, N-(2-((2-((2-methoxy-6-methylpyridin-4-yl)amino)-5-(trifluoromethyl)pyrimidin-4-yl)amino)-5-methylphenyl)acrylamide], the EC50 in experiment [1] and in experiment [2] was less than 0.1 µM each time.
For `C=CC(=O)Nc1cc(C)ccc1Nc1nc(Nc2cc(OC)nc(N3CCN(C(C)=O)CC3)c2)ncc1Cl` [Compound I-296, N-(2-((2-((2-(4-acetylpiperazin-1-yl)-6-methoxypyridin-4-yl)amino)-5-chloropyrimidin-4-yl)amino)-5-methylphenyl)acrylamide], the EC50 in experiment [1] and in experiment [2] was less than 0.1 µM throughout.
As for `C=CC(=O)Nc1cc(F)ccc1Nc1nc(Nc2cc(OC)ncc2C)ncc1C(F)(F)F` [Compound I-322, N-(5-fluoro-2-((2-((2-methoxy-5-methylpyridin-4-yl)amino)-5-(trifluoromethyl)pyrimidin-4-yl)amino)phenyl)acrylamide], the EC50 in experiment [1] and in experiment [2] was less than 0.1 µM each time.
With `C=CC(=O)Nc1cc(C(F)(F)F)ccc1Nc1nc(Nc2cc(OC)ncc2C)ncc1C(F)(F)F` [Compound I-323, N-(2-((2-((2-methoxy-5-methylpyridin-4-yl)amino)-5-(trifluoromethyl)pyrimidin-4-yl)amino)-5-(trifluoromethyl)phenyl)acrylamide], the EC50 in experiment [1] and in experiment [2] was less than 0.1 µM in each case.
In the case of `C=CC(=O)Nc1cc(C)ccc1Nc1nc(Nc2cc(OC)nc(N3CCN(C)CC3)c2)ncc1C(F)(F)F` [Compound I-325, N-(2-((2-((2-methoxy-6-(4-methylpiperazin-1-yl)pyridin-4-yl)amino)-5-(trifluoromethyl)pyrimidin-4-yl)amino)-5-methylphenyl)acrylamide], the EC50 in experiment [1] and in experiment [2] was 0.101 to 0.5 µM in each case.
As to `C=CC(=O)Nc1cc(C)ccc1Nc1nc(Nc2cc(OC)nc(N3CC(O)C3)c2)ncc1C(F)(F)F` [Compound I-328, N-(2-((2-((2-(3-hydroxyazetidin-1-yl)-6-methoxypyridin-4-yl)amino)-5-(trifluoromethyl)pyrimidin-4-yl)amino)-5-methylphenyl)acrylamide], the EC50 in experiment [1] and in experiment [2] was less than 0.1 µM each time.
